Data on three molecules can be found in article PMC6494831, “Drug-like Fragments Inhibit agr-Mediated Virulence Expression in Staphylococcus aureus” (Scientific Reports, 2019).

As usually defined, the Kd is a measure of binding affinity in units of concentration.

The assay concerns the target AgrA (Staphylococcus aureus, UniProt P0A0I7). Nature of the assay: ITC with purified AgrAC, one-site fit, N fixed to […]. Format: binding.

SMILES strings stand for the structures. Where two headings read alike, the source gives them in different places.

Chain of AgrA (P0A0I7 137-238): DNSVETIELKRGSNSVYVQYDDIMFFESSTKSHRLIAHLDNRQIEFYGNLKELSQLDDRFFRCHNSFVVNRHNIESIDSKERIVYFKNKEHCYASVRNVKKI

Turning to `Cc1cc(O)cc(C)c1C#N` [compound 3, 4-hydroxy-2,6-dimethylbenzonitrile], the Kd (read-out: Kd) stood at 110 ± 45.6 µM.

In the case of `O=C(O)C1c2ccccc2Oc2ccccc21` [compound 1, 9H-xanthene-9-carboxylic acid], the affinity, expressed as Kd, was 485 ± 39.3 µM.

Regarding `Cc1ccc(-c2nc(C(=O)O)cs2)cc1` [compound 2, 2-(4-methylphenyl)-1,3-thiazole-4-carboxylic acid], the Kd is 417 ± 62.9 µM.
